The text below walks through data of patent US20260109707A1, “HETEROBIFUNCTIONAL COMPOUNDS AND METHODS OF TREATING DISEASE” (Halda Therapeutics OpCo. Inc., priority 2022, published 2026).

Where two headings read alike, the source gives them in different places.

One assay has as its system VCaP cells. Put plainly: Cellular growth inhibition assay for VCaP cells (CellTiter-Glo, 72 hours). The assay is classed as cell-based, human. In outline: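 Luminescent viability signal after 72 h of compound exposure gave GI50 values by four-parameter nonlinear regression. Compounds were added in 0.5% DMSO to cells plated 24 h earlier at 5000/well in DMEM containing 10% FBS.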

For a further assay, the system named is T47D cells. Put plainly: Cellular growth inhibition assay for T47D cells (CellTiter-Glo, 72 hours). The assay is classed as cell-based, human. Particulars: 72 hours treatment. The protocol:
T47D cells were purchased from American Type Cell Culture (ATCC Cat #HTB-133) and then seeded on poly-D-lysine coated, black clear-bottom 384-well plates at 3000/well in 25 μL Dulbecco's Modified Eagle Medium (DMEM) supplemented with 10% w/w Fetal bovine serum (FBS), 0.2 units/mL recombinant human insulin (Gibco Cat #12585014), and 1% w/w Pen-Strep. Pen-Strep is a commercially available mixture of penicillin G and streptomycin, which is used in mammalian cell culture media to prevent bacterial contamination. Dulbecco's Modified Eagle Medium (DMEM) supplemented with 10% w/w fetal bovine serum (FBS), 0.2 units/mL recombinant human insulin, and 1% w/w Pen-Strep is herein referred to as Treatment Medium. Following seeding of cells in the plates, the plates were spun at 300×g for 30 seconds, then equilibrated to room temperature for 30 minutes, and then deposited in a humidified tissue culture incubator maintained at 37° C. with 5% CO2.
At 24 hours after seeding of the cells, dilutions of test compound were prepared in DMSO and dissolved in Treatment Medium, to achieve a final DMSO concentration of 0.5% w/w, thereby providing the Test Compound Solution. A 25 μL aliquot of the Test Compound Solution was added to cells in the well plates. An equal volume of a solution containing DMSO and Treatment Medium was used as a negative control. Following treatment of cells with Test Compound Solution or said equal volume of a solution containing DMSO and Treatment Medium, the plates were spun at 300×g for 30 seconds, and then left in an incubator for 72 hours.
At the end of the treatment duration, cell viability was quantified with CellTiter-Glo 2.0 reagent (Promega Cat #G9243). For this purpose, plates were equilibrated to room temperature for 30 minutes, and then 25 μL of CellTiter-Glo 2.0 reagent was added to cells in the plate wells. Plates were then agitated on a shaker for two minutes at 500 rpm and subsequently incubated at room temperature for 10 minutes. Following incubation, the plates were spun at 3000×g for 30 seconds, then sealed with an optical adhesive cover, and luminescence readings were measured with an EnVision Plate Reader (Perkin Elmer).
Data was normalized using zero luminescence for baseline. A four-parameter non-linear regression curve fit was applied to dose-response data in GraphPad Prism data analysis software to determine the half-maximal growth inhibitory concentration (GI50) for each test compound.

Assay [1] has as its system T-Rex 293 cell line SC3 cells having increased expression of androgen receptor protein due to exposure to doxycycline. Put plainly: Cellular growth inhibition assay, T-Rex 293 SC3 cells with doxycycline (CellTiter-Glo, 72 hours). The class given is cell-based. Particulars: T-Rex 293 SC3 cells with increased androgen receptor expression due to doxycycline (10 ng/mL). Summed up: (§1)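 Doxycycline (10 ng/mL) was either included or omitted to toggle wild-type androgen receptor expression in SC3 cells, a T-Rex 293 clone, grown in stripped-serum, phenol red-free medium. After 72 hours with compound, viable cells were quantified by CellTiter-Glo 2.0.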

The test system of assay [2] is T-Rex 293 cell line SC3 cells lacking increased expression of androgen receptor protein. Put plainly: Cellular growth inhibition assay, T-Rex 293 SC3 cells without doxycycline (CellTiter-Glo, 72 hours). The class given is cell-based. The settings on record: T-Rex 293 cell line SC3 cells not exposed to doxycycline (lacking increased androgen receptor expression). Summed up: as §1

Usually GI50 stands for the concentration that inhibits growth by half. A low value points to greater sensitivity of the cells. Turning to `Cc1sc2c(c1C)C(c1ccc(OC3CC4(CCN(c5ccc(C(=O)N[C@H]6CC[C@H](Oc7ccc(C#N)c(Cl)c7)CC6)nn5)CC4)C3)cc1)=N[C@H](Cc1ncco1)c1nnc(C)n1-2` [I-80], the GI50 in the assay with VCaP cells (Homo sapiens, VCaP, 72 h) is below 500 nM; in the assay on T47D cells (Homo sapiens, T47D, 72 h) it was above 3000 nM; in assay [1] (72 h) it was below 500 nM; in assay [2] (72 h), above 3000 nM.

Turning to `Cc1sc2c(c1C)C(c1ccc(OC3CN(CC4CCN(c5ccc(C(=O)N[C@H]6CC[C@H](Oc7ccc(C#N)c(Cl)c7)CC6)nn5)CC4)C3)cc1)=N[C@@H](Cc1ncco1)c1nnc(C)n1-2` [I-81], the GI50 with VCaP cells (Homo sapiens, VCaP, 72 h) is below 500 nM; in the assay on T47D cells, above 3000 nM; in assay [1] (72 h) it was below 500 nM; in assay [2], above 3000 nM.

As for `Cc1sc2c(c1C)C(c1ccc(OC3CN(CC4CCN(c5ccc(C(=O)N[C@H]6CC[C@H](Oc7ccc(C#N)c(Cl)c7)CC6)nn5)CC4)C3)cc1)=N[C@H](Cc1ncco1)c1nnc(C)n1-2` [I-82], the GI50 is below 500 nM with VCaP cells (Homo sapiens, VCaP, 72 h); below 500 nM in the assay on T47D cells (Homo sapiens, T47D, 72 h); below 500 nM in assay [1] (72 h); below 500 nM in assay [2] (72 h).

In the case of `Cc1sc2c(c1C)C(c1ccc(OC3CC4(CCN(c5ccc(C(=O)N[C@H]6CC[C@H](Oc7ccc(C#N)c(Cl)c7)CC6)nn5)CC4)C3)cc1)=N[C@@H](CC#N)c1nnc(C)n1-2` [I-83], the GI50 is below 500 nM in the assay on VCaP cells (Homo sapiens, VCaP, 72 h); below 500 nM with T47D cells (Homo sapiens, T47D, 72 h); below 500 nM in assay [1] (72 h); above 3000 nM in assay [2] (72 h).

For `Cc1sc2c(c1C)C(c1ccc(OC3CC4(CCN(c5ncc(C(=O)N[C@H]6CC[C@H](Oc7ccc(C#N)c(Cl)c7)CC6)cn5)CC4)C3)cc1)=N[C@@H](Cc1ncco1)c1nnc(C)n1-2` [I-84], the GI50 in the assay on VCaP cells (Homo sapiens, VCaP, 72 h) was below 500 nM; with T47D cells (Homo sapiens, T47D, 72 h), below 500 nM; in assay [1] (72 h) it was below 500 nM; in assay [2] (72 h), below 500 nM.

As to `Cc1sc2c(c1C)C(c1ccc(OC3CCC4(C3)CN(c3ccc(C(=O)N[C@H]5CC[C@H](Oc6ccc(C#N)c(Cl)c6)CC5)nn3)C4)cc1)=N[C@@H](Cc1ncco1)c1nnc(C)n1-2` (some centres unmarked) [I-85], the GI50 in the assay with VCaP cells (Homo sapiens, VCaP, 72 h) was below 500 nM; in the assay with T47D cells (Homo sapiens, T47D, 72 h) it was below 500 nM; in assay [1] (72 h), below 500 nM; in assay [2] (72 h), below 500 nM.

Regarding `Cc1sc2c(c1C)C(c1ccc(OC3CN(CC4CCN(c5ccc(C(=O)N[C@H]6CC[C@H](Oc7ccc(C#N)c(Cl)c7)CC6)nn5)CC4)C3)cc1)=N[C@@H](Cc1ncco1)c1nnc(C)n1-2` [I-87], the GI50 (in the assay with VCaP cells; in the assay with T47D cells; in assay [1]; in assay [2]) was below 500 nM each time.

Turning to `Cc1sc2c(c1C)C(c1ccc(OC3CC4(CCN(c5ccc(C(=O)N[C@H]6CC[C@H](Oc7ccc(C#N)c(Cl)c7)CC6)cn5)CC4)C3)cc1)=N[C@@H](Cc1ncco1)c1nnc(C)n1-2` [I-88], the GI50 in the assay with VCaP cells (Homo sapiens, VCaP, 72 h) is below 500 nM; in the assay with T47D cells (Homo sapiens, T47D, 72 h), below 500 nM; in assay [1] (72 h), below 500 nM; in assay [2] (72 h), below 500 nM.

In the case of `Cc1sc2c(c1C)C(c1ccc(OC3CC4(CCN(c5ccc(C(=O)N[C@H]6CC[C@H](Oc7ccc(C#N)c(Cl)c7)CC6)nc5)CC4)C3)cc1)=N[C@@H](Cc1ncco1)c1nnc(C)n1-2` [I-89], the GI50 with VCaP cells (Homo sapiens, VCaP, 72 h) was below 500 nM; with T47D cells (Homo sapiens, T47D, 72 h) it was below 500 nM; in assay [1] (72 h) it was below 500 nM; in assay [2] (72 h) it was below 500 nM.

On to `Cc1sc2c(c1C)C(c1ccc(O[C@H]3C[C@H](OC4CCN(c5ccc(C(=O)N[C@H]6CC[C@H](Oc7ccc(C#N)c(Cl)c7)CC6)nn5)CC4)C3)cc1)=N[C@@H](Cc1ncco1)c1nnc(C)n1-2` [I-90], for which the GI50 was below 500 nM in the assay on VCaP cells (Homo sapiens, VCaP, 72 h); below 500 nM with T47D cells (Homo sapiens, T47D, 72 h); below 500 nM in assay [1] (72 h); below 500 nM in assay [2] (72 h).

As to `Cc1sc2c(c1C)C(c1ccc(OC3CC4(C3)CN(c3ccc(C(=O)N[C@H]5CC[C@H](Oc6ccc(C#N)c(Cl)c6)CC5)nn3)C4)cc1)=N[C@@H](Cc1ncco1)c1nnc(C)n1-2` [I-91], the GI50 in the assay on VCaP cells (Homo sapiens, VCaP, 72 h) is below 500 nM; in the assay with T47D cells (Homo sapiens, T47D, 72 h) it was below 500 nM; in assay [1] (72 h), below 500 nM; in assay [2] (72 h) it was below 500 nM.
